From article PMC9182199, “Borylated 2,3,4,5-Tetrachlorophthalimide and Their 2,3,4,5-Tetrachlorobenzamide Analogues: Synthesis, Their Glycosidase Inhibition and Anticancer Properties in View to Boron Neutron Capture Therapy” (Molecules, 2022) come the findings set out here.

Experiment [1] has as its system Du145. The experiment in a line: MTT cell growth inhibition: Du145. The experiment is classed as cell-based. The following applies: Homo sapiens, DU-145, read-out: GI50 = Concentration (µM) that inhibits cell growth by 50%; Du145 prostate carcinoma; dose response.
Experiment [2] deals with MCF10A. As to the kind of experiment: MTT cell growth inhibition: MCF10A normal breast. Type of experiment: cell-based. The following applies: Homo sapiens, MCF-10A, read-out: GI50 = Concentration (µM) that inhibits cell growth by 50%.
Experiment [3] concerns SJ-G2. The experiment in a line: MTT cell growth inhibition: SJ-G2. The note with it: read-out: GI50 = Concentration (µM) that inhibits cell growth by 50%; SJ-G2 glioblastoma; dose response. The experiment is classed as cell-based.
In experiment [4] the test system is HT29. The experiment in a line: MTT cell growth inhibition: HT29. The note with it: Homo sapiens, HT-29, read-out: GI50 = Concentration (µM) that inhibits cell growth by 50%; HT29 colon carcinoma; dose response. Type of experiment: cell-based.
The test system of experiment [5] is MIA-Pa-Ca2. As to the kind of experiment: MTT cell growth inhibition: MIA-Pa-Ca2. The following applies: 72 h; for inhibition at 25 µM: Homo sapiens, MIA PaCa-2, MIA-Pa-Ca2 pancreatic carcinoma, read-out: Percentage (%) Cell Growth Inhibition in response to 25 µM of Drug; for Percentage (%) Cell Growth Inhibition in response to 25 µM of Drug: MIA-Pa-Ca2 pancreatic carcinoma. The experiment is classed as cell-based. Here is the method: All test agents were prepared as stock solutions (20 mM) in dimethyl sulfoxide (DMSO) and stored at −20 °C. Cell lines used in the study included HT29 (colorectal carcinoma); U87, SJ-G2, (glioblastoma); MCF-7, (breast carcinoma); A2780 (ovarian carcinoma); H460 (lung carcinoma); A431 (skin carcinoma); Du145 (prostate carcinoma); BE2-C (neuroblastoma); MiaPaCa-2 (pancreatic carcinoma); and SMA560 (spontaneous murine astrocytoma), together with the one non-tumour-derived normal breast cell line (MCF10A). All cell lines were incubated in a humidified atmosphere 5% CO2 at 37 °C. The cancer cell lines were maintained in Dulbecco’s modified Eagle’s medium (DMEM; Sigma, Australia) supplemented with foetal bovine serum (10%), sodium pyruvate (10 mM), penicillin (100 IUmL^−1), streptomycin (100 µg mL^−1) and L-glutamine (2 mM).
Growth inhibition was determined by plating cells in duplicate in medium (100 µL) at a density of 2500–4000 cells per well in 96-well plates. On day 0 (24 h after plating), when the cells were in logarithmic growth, medium (100 µL) with or without the test agent was added to each well. After 72 h drug exposure, growth inhibitory effects were evaluated using the MTT (3-(4,5-dimethyltiazol-2-yl)-2,5-diphenyltetrazolium bromide) assay and absorbance read at 540 nm. The percentage growth inhibition was calculated at a fixed concentration of 25 µM, based on the difference between the optical density values on day 0 and those at the end of drug exposure. Each data point is the mean ± the standard error of the mean (SEM) calculated from three replicates which were performed on separate occasions and separate cell line passages.

Experiment [6] deals with panel of 10 cancer cell lines and a normal cell line (MCF10A). The experiment in a line: Cancer screening: whole cell line panel. The following applies: for GI50: Homo sapiens, read-out: GI50 values across all cancer cell lines and the normal cell line. Type of experiment: cell-based.
Experiment [7] concerns Penicillium decumbens α-L-rhamnosidase. As to the kind of experiment: Glycosidase inhibition, laboratory 1: α-L-rhamnosidase. The note with it: methanol. Type of experiment: biochemical. The text has this:
(§1) The enzymes α-glucosidase (from yeast), β-glucosidases (from almond and bovine liver), α-galactosidase (from coffee beans), β-galactosidase (from bovine liver), α-mannosidase (from Jack bean), β-mannosidase (from snail), α-L-rhamnosidase (from Penicillium decumbens), α-L-fucosidase (from bovine kidney), trehalase (from porcine kidney), β-glucuronidases (from E. coli and bovine liver), amyloglucosidase (from A. niger), para-nitrophenyl glycosides, and various disaccharides were purchased from Sigma-Aldrich Co (St Louis, MO, USA).
(§2) Brush border membranes were prepared from the rat small intestine according to the method of Kessler et al. and were assayed at pH 6.8 for rat intestinal maltase using maltose. For rat intestinal maltase, porcine kidney trehalase, and A. niger amyloglucosidase activities, the reaction mixture contained 25 mM maltose and the appropriate amount of enzyme, and the incubations were performed for 10–30 min at 37 °C. The reaction was stopped by heating at 100 °C for 3 min. After centrifugation (600× g; 10 min), the resulting reaction mixture was added to the Glucose CII-test Wako (Wako Pure Chemical Ind., Osaka, Japan). The absorbance at 505 nm was measured to determine the amount of the released D-glucose. Other glycosidase activities were determined using an appropriate para-nitrophenyl glycoside as substrate at the optimum pH of each enzyme. The reaction mixture contained 2 mM of the substrate and the appropriate amount of enzyme. The reaction was stopped by addition of 400 mM Na2CO3. The released para-nitrophenol was measured spectrometrically at 400 nm. All reactions run in methanol.

For experiment [8], the system named is BE2-C. The experiment in a line: MTT cell growth inhibition: BE2-C. Type of experiment: cell-based. The following applies: Homo sapiens, BE(2)-C, read-out: GI50 = Concentration (µM) that inhibits cell growth by 50%; BE2-C neuroblastoma; dose response.
The target in experiment [9] is T1, bovine liver β-glucosidase (Bos taurus, UniProt F1MNT6).
T1 sequence (F1MNT6 1-469): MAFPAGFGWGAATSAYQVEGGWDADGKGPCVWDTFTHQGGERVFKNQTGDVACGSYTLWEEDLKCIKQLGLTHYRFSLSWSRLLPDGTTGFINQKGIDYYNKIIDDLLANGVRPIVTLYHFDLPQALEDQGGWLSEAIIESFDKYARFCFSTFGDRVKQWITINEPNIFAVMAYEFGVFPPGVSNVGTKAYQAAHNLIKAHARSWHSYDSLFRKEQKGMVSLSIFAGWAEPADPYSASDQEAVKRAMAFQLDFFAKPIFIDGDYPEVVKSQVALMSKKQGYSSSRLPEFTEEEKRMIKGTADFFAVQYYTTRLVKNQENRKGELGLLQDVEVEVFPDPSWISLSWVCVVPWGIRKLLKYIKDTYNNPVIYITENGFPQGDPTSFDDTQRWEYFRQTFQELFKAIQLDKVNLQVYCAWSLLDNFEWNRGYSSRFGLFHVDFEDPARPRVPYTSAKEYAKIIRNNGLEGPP
As to the kind of experiment: Glycosidase inhibition, laboratory 1: bovine liver β-glucosidase. Type of experiment: biochemical. The note with it: methanol.
Text: as §1, §2

Experiment [10] relates to MIA-Pa-Ca2. The experiment in a line: MTT cell growth inhibition: MIA-Pa-Ca2. Type of experiment: cell-based. The note with it: Homo sapiens, MIA PaCa-2, read-out: GI50 = Concentration (µM) that inhibits cell growth by 50%; MIA-Pa-Ca2 pancreatic carcinoma; dose response.
Experiment [11] has as its system panel of 15 glycosidases. As to the kind of experiment: Glycosidase inhibition, laboratory 1: whole panel. Type of experiment: biochemical. The note with it: laboratory 1, methanol; range or words over enzymes.
Text: as §1
as §2, with “After centrifugation (600× g; 10 min), the resulting reaction mixture was added to the Glucose CII-test Wako (Wako Pure Chemical Ind., Osaka, Japan).” left out, “The reaction mixture contained 2 mM of the substrate and the appropriate amount of enzyme. The reaction was stopped by addition of 400 mM Na2CO3.” left out, “All reactions run in methanol.” left out

With `CC1(C)OB(c2cccc(CN3C(=O)c4c(Cl)c(Cl)c(Cl)c(Cl)c4C3=O)c2)OC1(C)C` [meta 3, 4,5,6,7-Tetrachloro-2-(3-(4,4,5,5-tetramethyl-1,3,2-dioxaborolan-2-yl)benzyl)isoindoline-1,3-dione], the GI50 in experiment [1] is 30 ± 0.41 µM; in experiment [2], 18 ± 1 µM; in [3] it was 35 ± 1.7 µM; in experiment [4], 26 ± 2.6 µM; in [6] it was 18 to 38 µM; in [8], 29 ± 0.58 µM. The GI50 in [10] turned out to be 38 ± 2.9 µM. Besides, the inhibition at 25 µM in experiment [5] was 29 ± 2%. Moreover, in experiment [7], the “inhibition % at 10 μM” value is recorded as “^cNI ^d (0%)”. Moreover, in experiment [9], testing at 10 µM gave an inhibition of 18.8%.
As for `CC1(C)OB(c2cccc(NC(=O)c3cc(Cl)c(Cl)c(Cl)c3Cl)c2)OC1(C)C` [meta 5, 2,3,4,5-tetrachloro-N-(3-(4,4,5,5-tetramethyl-1,3,2-dioxaborolan-2-yl)phenyl)benzamide], in experiment [5], the inhibition at 25 µM is 8 ± 5%. Besides, the “inhibition % at 100 μM” value in experiment [7] is “^aNI ^b (2.2%)”.
In the case of `CC1(C)OB(c2ccccc2CNC(=O)c2cc(Cl)c(Cl)c(Cl)c2Cl)OC1(C)C` [ortho 8, 2,3,4,5-tetrachloro-N-(2-(4,4,5,5-tetramethyl-1,3,2-dioxaborolan-2-yl)benzyl)benzamide], the inhibition at 25 µM in experiment [5] is 6 ± 10%. Further, the “Percent cell growth inhibition across the cell line panel” value in [6] (25 μM, range or words over cell lines) was “almost complete abrogation of cell growth inhibition”. For the same compound, the “inhibition % at 100 μM” value in experiment [7] was “^aNI ^b (6.2%)”.
Take `CC1(C)OB(c2ccccc2NC(=O)c2cc(Cl)c(Cl)c(Cl)c2Cl)OC1(C)C` [ortho 5, 2,3,4,5-Tetrachloro-N-(2-(4,4,5,5-tetramethyl-1,3,2-dioxaborolan-2-yl)phenyl)benzamide]: the GI50 is 16 ± 1.9 µM in experiment [1]; 27 ± 2.8 µM in experiment [2]; 16 ± 0.91 µM in experiment [3]; 14 ± 1.7 µM in experiment [4]; 11 to 27 µM in experiment [6]; 16 ± 0.58 µM in experiment [8]. Besides, the GI50 in experiment [10] is 14 ± 0.25 µM. Moreover, the inhibition at 25 µM in experiment [5] turned out to be 100 ± 3%. Further, the “inhibition % at 10 μM” value in experiment [7] is recorded as “^cNI ^d (0%)”. The “percent inhibition across the glycosidase panel” value in experiment [11] is recorded as “no significant inhibition”. This compound also came in with an inhibition at 10 µM in [9] of 21.2%.
`CC1(C)OB(c2ccc(CN3C(=O)c4c(Cl)c(Cl)c(Cl)c(Cl)c4C3=O)cc2)OC1(C)C` [para 3, 4,5,6,7-Tetrachloro-2-(4-(4,4,5,5-tetramethyl-1,3,2-dioxaborolan-2-yl)benzyl)isoindoline-1,3-dione]: the GI50 in [1] is 5.5 ± 0.23 µM; in experiment [2], 12 ± 0.58 µM; in experiment [3] it was 6.6 ± 2.4 µM; in [4], 5.3 ± 1.3 µM; in [6] it was 3 to 18 µM; in experiment [8], 8.1 ± 1.7 µM. For the same compound, the GI50 in experiment [10] stood at 9.2 ± 1.9 µM. Further, the inhibition at 25 µM in experiment [5] stood at 98 ± 3%. For the same compound, the “inhibition % at 100 μM” value in [7] is reported as “^aNI ^b (0%)”. In experiment [9] (100 μM), this compound showed an inhibition at 100 µM of 4%.
With `N[C@@H](Cc1ccc(B(O)O)cc1)C(=O)O` [BPA, 4-borono-L-phenylalanine, reference compound], in experiment [5], the inhibition at 25 µM was 3 ± 3%. The “inhibition % at 100 μM” value in experiment [7] is “^cNI ^d (0%)”.
In the case of `N[C@@H](Cc1ccc(B(O)O)cc1)C(=O)O` [^10B-BPA, reference compound], in [5], the “Percentage (%) Cell Growth Inhibition in response to 25 µM of Drug” value is on record as 11 ± 3%. In addition, the results for the “inhibition % at 100 μM” value in experiment [7] and in [9] (100 μM) were “^cNI ^d (0%)” and “^cNI ^d (14.2%)”, respectively.
Consider “Borocaptate sodium [BSH, reference compound]”, for which the “Percentage (%) Cell Growth Inhibition in response to 25 µM of Drug” value in experiment [5] is 2 ± 6%. Also, the “inhibition % at 1000 μM” value in experiment [7] (1000 μM) is “^aNI ^b (0.2%)”; in [9] (1000 μM) it was “^aNI ^b (15%)”.
On to `CC1(C)OB(c2ccc(NC(=O)c3cc(Cl)c(Cl)c(Cl)c3Cl)cc2)OC1(C)C` [para 5, 2,3,4,5-tetrachloro-N-(4-(4,4,5,5-tetramethyl-1,3,2-dioxaborolan-2-yl)phenyl)benzamide], for which the inhibition at 25 µM in experiment [5] came out at 52 ± 1%. Further, in experiment [7], the “inhibition % at 100 μM” value is recorded as “^aNI ^b (14.4%)”.

Broadly, the inhibition is the share of the control response that was lost under treatment.
